Data reported in publication PMC6001238, “Iterative Chemical Engineering of Vancomycin Leads to Novel Vancomycin Analogs With a High in Vitro Therapeutic Index” (Frontiers in Microbiology, 2018).
Values after ≈ are worked out from the molar mass of the structure shown. Read-outs that look alike come from different tables or passages of the source.

What was measured:
E. faecalis VSE 1 = assay: MIC, broth microdilution, vancomycin-sensitive E. faecalis (VSE 1); type: cell-based, Enterococcus faecalis
Summary of the method: (§1)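 Read-out: lowest concentration inhibiting growth in broth microdilution, CLSI method. Water and broth-only wells acted as controls; in one case 10 μM vancomycin (final) was present with the compound.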

MRSA KS6 = assay: MIC, broth microdilution, MRSA KS6; type: cell-based, Staphylococcus aureus; conditions: Staphylococcus aureus MRSA KS6; read-out: MIC
Summary of the method: as §1

[1] = system: Clostridium difficile ATJ ribotype 014/20; assay: MIC, plate drop assay, C. difficile ATJ ribotype 014/20; type: cell-based
Summary of the method: (§2)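 Lawns of each strain were made in soft BHI agar (0.4%) supplemented with CaCl2⋅2H2O and MgCl2⋅6H2O. Twofold compound dilutions (10 μL) were spotted, air-dried and incubated overnight at 37°C anaerobically; MIC read as cleared spots, in triplicate with water as negative control.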

MRSA KS2 = assay: MIC, broth microdilution, MRSA KS2; type: cell-based, Staphylococcus aureus
Summary of the method: as §1

VE 149 (VanB) = assay: MIC, VanB-type VRE strain VE 149; type: cell-based, Enterococcus; conditions: Enterococcus; VE 149, VanB; read-out: MIC
Description: (§3) The minimum inhibitory concentration (MIC) was determined using the broth microdilution method according to the antimicrobial susceptibility testing standards of the clinical and laboratory standards institute ([Clinical and Laboratory Standards Institute [CLSI], 2012]). Ultrapure water and non-inoculated broth were used as controls. In one case, a final concentration of 10 μM vancomycin was included with the vancomycin analog or control antibiotic.

MRSA = assay: Minimum bactericidal concentration against MRSA; type: cell-based, Staphylococcus aureus
Description: Plates were incubated overnight at 37°C and colony growth was inspected.

[2] = system: 24 clinical MRSA isolates; assay: MIC against a set of 24 clinical MRSA isolates (range, MIC50, TI); type: cell-based, Staphylococcus aureus
Description: as §3

E. faecalis VRE 29 = assay: MIC, broth microdilution, vancomycin-resistant E. faecalis VRE 29 (VanA); type: cell-based, Enterococcus faecalis
Summary of the method: as §1

S. aureus VRSA = assay: MIC, broth microdilution, vancomycin-resistant S. aureus (VRSA); type: cell-based, Staphylococcus aureus
Summary of the method: as §1

[3] = system: Clostridium difficile AIU ribotype 027; assay: MIC, plate drop assay, C. difficile AIU ribotype 027; type: cell-based
Summary of the method: as §2

VE 150 (VanB) = assay: MIC, VanB-type VRE strain VE 150; type: cell-based, Enterococcus; conditions: Enterococcus; VE 150, VanB; read-out: MIC
Description: as §3

VE 152 (VanB) = assay: MIC, VanB-type VRE strain VE 152; type: cell-based, Enterococcus; conditions: Enterococcus; VE 152, VanB; read-out: MIC
Description: as §3

[4] = system: Murine leukemia (L1210) cells; assay: Cytostatic activity, L1210 cell proliferation; type: cell-based; conditions: Mus musculus, L1210, 48 h; mean ± SD of three experiments; highest concentration tested 250 µM; 2 days; read-out: Toxicity (IC50) L1210
Summary of the method: (§4)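 Test compounds, serially diluted, received an equal volume of cell suspension at 300,000–500,000 cells/mL. After 37°C incubation (2 days for L1210, 3 for CEM, 4 for HeLa), cells were enumerated by Coulter counting and 50%-inhibitory concentrations calculated per cell type.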

[5] = system: S. aureus VSSA (ATCC 6538); assay: MIC, broth microdilution, vancomycin-sensitive S. aureus (VSSA/MSSA, ATCC 6538); type: cell-based, Staphylococcus aureus
Summary of the method: as §1

VE 157 (VanB) = assay: MIC, VanB-type VRE strain VE 157; type: cell-based, Enterococcus; conditions: Enterococcus; VE 157, VanB; read-out: MIC
Description: as §3

VE 148 (VanB) = assay: MIC, VanB-type VRE strain VE 148; type: cell-based, Enterococcus; conditions: Enterococcus; VE 148, VanB; read-out: MIC
Description: as §3

MRSA KS89 = assay: MIC, broth microdilution, MRSA KS89; type: cell-based, Staphylococcus aureus
Summary of the method: as §1

E. faecalis VRE 6 = assay: MIC, broth microdilution, vancomycin-resistant E. faecalis VRE 6 (VanA); type: cell-based, Enterococcus faecalis
Summary of the method: as §1

[6] = system: human cervix carcinoma (HeLa) cells; assay: Cytostatic activity, HeLa cell proliferation; type: cell-based; conditions: Homo sapiens, HeLa, 96 h; mean ± SD of three experiments; highest concentration tested 250 µM; 4 days; read-out: Toxicity (IC50) HeLa
Summary of the method: as §4

E. faecalis VRE 53 = assay: MIC, broth microdilution, vancomycin-resistant E. faecalis VRE 53 (VanA); type: cell-based, Enterococcus faecalis
Summary of the method: as §1

[7] = system: L1210, CEM and HeLa cell lines; assay: Cytostatic activity, average or summary over L1210, CEM and HeLa; type: cell-based
Summary of the method: as §4

MRSA KS1 = assay: MIC, broth microdilution, MRSA KS1; type: cell-based, Staphylococcus aureus
Summary of the method: as §1

E. faecalis VRE 37 = assay: MIC, broth microdilution, vancomycin-resistant E. faecalis VRE 37 (VanA); type: cell-based, Enterococcus faecalis
Summary of the method: as §1

33 clinical VRE isolates = assay: MIC against a set of 33 clinical VRE isolates (range, MIC50, TI); type: cell-based, Enterococcus faecalis
Description: as §3

[8] = system: human T-lymphocyte (CEM) cells; assay: Cytostatic activity, CEM cell proliferation; type: cell-based; conditions: Homo sapiens, CCRF-CEM, 72 h; mean ± SD of three experiments; highest concentration tested 250 µM; 3 days; read-out: Toxicity (IC50) CEM
Summary of the method: as §4

VE 82 (VanC1) = assay: MIC, VanC1-type VRE strain VE 82; type: cell-based, Enterococcus gallinarum; conditions: Enterococcus gallinarum; VE 82, VanC1; read-out: MIC
Description: as §3

S. aureus VISA/HIP5827 = assay: MIC, broth microdilution, vancomycin-intermediate S. aureus VISA HIP5827; type: cell-based, Staphylococcus aureus
Summary of the method: as §1

For CCCCCCCCCC(=O)N[C@@H](Cc1c[nH]c2ccccc12)C(=O)N[C@H](CC(N)=O)C(=O)N[C@@H](CC(=O)O)C(=O)N[C@@H]1C(=O)NCC(=O)N[C@@H](CCCN)C(=O)N[C@@H](CC(=O)O)C(=O)N[C@H](C)C(=O)N[C@@H](CC(=O)O)C(=O)NCC(=O)N[C@H](CO)C(=O)N[C@@H]([C@H](C)CC(=O)O)C(=O)N[C@@H](CC(=O)c2ccccc2N)C(=O)O[C@@H]1C [Daptomycin, reference compound], the MIC (E. faecalis VSE 1; VSE1, Enterococcus faecalis VSE 1 (vancomycin-sensitive), read-out: MIC) was greater than 6.25 µM, the “MIC-fold improvement vs. vancomycin” value (E. faecalis VSE 1; VSE 1, ratio of MIC of vancomycin and MIC of analogue) was less than 0.2 and the MIC (MRSA KS6) was greater than 12.5 µM. The “MIC-fold improvement vs. vancomycin” value ([1]; C. difficile ATJ ribotype 014/20) was 22, the MIC ([1]; Clostridioides difficile, C. difficile ATJ ribotype 014/20, plate drop assay) was 1.56 µM (≈ 2.53 µg/mL) and the “MIC-fold improvement vs. vancomycin” value (MRSA KS2; MRSA KS2, ratio of MIC of vancomycin and MIC of analogue) was 0.05. The MIC (MRSA KS2; Staphylococcus aureus MRSA KS2, read-out: MIC) was 12.5 µM (≈ 20.3 µg/mL), the MIC (VE 149 (VanB)) was 25 µM (≈ 40.5 µg/mL) and the “MBC relative to MIC” value (MRSA) was “MBC equaling their MIC values”. The “MIC Range” value ([2]; 24 clinical MRSA isolates) was 0.78 to 12.5 µM, the MIC50 ([2]; Staphylococcus aureus, median MIC, 24 clinical MRSA isolates, read-out: MIC50) was 0.78 µM (≈ 1.26 µg/mL) and the “TI (IC50/MIC50)” value ([2]; in vitro therapeutic index, MRSA) was 321. The MIC (E. faecalis VRE 29; Enterococcus faecalis VRE 29 (vancomycin-resistant), read-out: MIC) was 50 µM (≈ 81 µg/mL), the “MIC-fold improvement vs. vancomycin” value (E. faecalis VRE 29; VRE 29, ratio of MIC of vancomycin and MIC of analogue) was 8 and the MIC (S. aureus VRSA; Staphylococcus aureus VRSA, read-out: MIC) was 12.5 µM (≈ 20.3 µg/mL). For the same compound, the “MIC-fold improvement vs. vancomycin” value (S. aureus VRSA; VRSA, ratio of MIC of vancomycin and MIC of analogue) was 8, the “MIC-fold improvement vs. vancomycin” value ([3]; C. difficile AIU ribotype 027) was 29 and the MIC ([3]; Clostridioides difficile, C. difficile AIU ribotype 027, plate drop assay) was 1.56 µM (≈ 2.53 µg/mL). For the same compound, the MIC (VE 150 (VanB)) was 25 µM (≈ 40.5 µg/mL), the MIC (VE 152 (VanB)) was 25 µM (≈ 40.5 µg/mL) and the IC50 [4] was greater than 250 µM. For the same compound, the MIC ([5]; ATCC6538, Staphylococcus aureus VSSA, read-out: MIC) was greater than 6.25 µM, the “MIC-fold improvement vs. vancomycin” value ([5]; VSSA, ratio of MIC of vancomycin and MIC of analogue) was less than 0.1 and the MIC (VE 157 (VanB)) was 12.5 µM (≈ 20.3 µg/mL). The MIC (VE 148 (VanB)) was 25 µM (≈ 40.5 µg/mL), the “MIC-fold improvement vs. vancomycin” value (MRSA KS89; MRSA KS8 (head; KS89 in title), ratio of MIC of vancomycin and MIC of analogue) was 0.1 and the MIC (MRSA KS89; Staphylococcus aureus MRSA KS8 (head; KS89 in title), read-out: MIC) was 6.25 µM (≈ 10.1 µg/mL). For the same compound, the MIC (E. faecalis VRE 6; Enterococcus faecalis VRE 6 (vancomycin-resistant), read-out: MIC) was 6.25 µM (≈ 10.1 µg/mL), the “MIC-fold improvement vs. vancomycin” value (E. faecalis VRE 6; VRE 6, ratio of MIC of vancomycin and MIC of analogue) was 32 and the IC50 [6] was greater than 250 µM. The MIC (E. faecalis VRE 53; Enterococcus faecalis VRE 53 (vancomycin-resistant), read-out: MIC) was 50 µM (≈ 81 µg/mL), the “MIC-fold improvement vs. vancomycin” value (E. faecalis VRE 53; VRE 53, ratio of MIC of vancomycin and MIC of analogue) was 8 and the IC50 ([7]; average IC50 used for TI in Table S5, >250 entered as 250, read-out: IC50) was 250 µM. The IC50 ([7]; average of L1210, CEM and HeLa, read-out: Toxicity (IC50) Average) was greater than 250 µM, the “MIC-fold improvement vs. vancomycin” value (MRSA KS1; MRSA KS1, ratio of MIC of vancomycin and MIC of analogue) was 0.05 and the MIC (MRSA KS1; Staphylococcus aureus MRSA KS1, read-out: MIC) was 12.5 µM (≈ 20.3 µg/mL). For the same compound, the MIC (E. faecalis VRE 37; Enterococcus faecalis VRE 37 (vancomycin-resistant), read-out: MIC) was 50 µM (≈ 81 µg/mL), the “MIC-fold improvement vs. vancomycin” value (E. faecalis VRE 37; VRE 37, ratio of MIC of vancomycin and MIC of analogue) was 8 and the “MIC Range” value (33 clinical VRE isolates; 33 clinical VRE isolates) was 3.13 to 12.5 µM. For the same compound, the MIC50 (33 clinical VRE isolates; Enterococcus, median MIC, 33 clinical VRE isolates, read-out: MIC50) was 6.25 µM (≈ 10.1 µg/mL), the “TI (IC50/MIC50)” value (33 clinical VRE isolates; in vitro therapeutic index, VRE) was 40 and the IC50 [8] was greater than 250 µM. For the same compound, the MIC (VE 82 (VanC1)) was 12.5 µM (≈ 20.3 µg/mL), the MIC (S. aureus VISA/HIP5827; Staphylococcus aureus VISA/HIP5827, read-out: MIC) was greater than 12.5 µM and the “MIC-fold improvement vs. vancomycin” value (S. aureus VISA/HIP5827; VISA/HIP5827, ratio of MIC of vancomycin and MIC of analogue) was less than 0.5.
